One may read the EC50 as the concentration at which the effect is half-maximal.

The target of one assay is T1, FPR1 (Homo sapiens, UniProt P21462).
T1 construct: expressed in transfected cells; host or cells: HEK-Gqi5 (HEK cells with chimeric G protein Gqi5)
T1 sequence (P21462 1-350): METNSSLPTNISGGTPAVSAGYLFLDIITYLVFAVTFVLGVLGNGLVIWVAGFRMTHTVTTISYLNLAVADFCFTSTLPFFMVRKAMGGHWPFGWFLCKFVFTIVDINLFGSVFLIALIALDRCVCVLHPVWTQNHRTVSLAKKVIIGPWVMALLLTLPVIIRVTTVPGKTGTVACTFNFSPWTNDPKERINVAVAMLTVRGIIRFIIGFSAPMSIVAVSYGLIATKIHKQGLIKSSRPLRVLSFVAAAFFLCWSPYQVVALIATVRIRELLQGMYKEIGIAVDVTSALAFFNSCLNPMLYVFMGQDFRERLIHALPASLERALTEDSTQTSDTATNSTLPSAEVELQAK
The assay can be described thus: compound-induced calcium activity on FLIPR Tetra in HEK-Gqi5 cells stable expressing FPR1. In kind it is cell-based. Also noted: FPR1 (rel. eff.): scale not given here. The method, boiled down: (§1)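 FPRL1 tested in CHO-Gal6 cells and FPR1 in HEK-Gqi5 cells, both stably expressing receptor and plated the day before. Compound-induced calcium response measured on FLIPR Tetra at 0.61 to 10,000 nM. EC50 (nM) and efficacy reported.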

The target in the next assay is T2, FPRL1 (Homo sapiens, UniProt P25090).
T2 construct: expressed in transfected cells; host or cells: CHO-Gal6 (CHO cells with G alpha 16)
T2 sequence (P25090 1-351): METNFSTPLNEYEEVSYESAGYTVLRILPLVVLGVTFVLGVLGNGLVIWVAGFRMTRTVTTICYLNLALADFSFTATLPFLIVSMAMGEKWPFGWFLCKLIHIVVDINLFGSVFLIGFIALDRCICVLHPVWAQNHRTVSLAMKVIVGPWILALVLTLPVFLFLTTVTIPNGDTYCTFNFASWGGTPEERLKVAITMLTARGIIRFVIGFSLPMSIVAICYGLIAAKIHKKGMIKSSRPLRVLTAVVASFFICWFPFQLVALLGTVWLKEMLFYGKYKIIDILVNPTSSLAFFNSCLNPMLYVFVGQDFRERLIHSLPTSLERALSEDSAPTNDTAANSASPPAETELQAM
The assay can be described thus: compound-induced calcium activity on FLIPR Tetra in CHO-Gal6 cells stably expressing FPRL1. The class given is cell-based. Particulars: calcium, FLIPR Tetra; for EC50: tested 0.61 to 10,000 nM, read-out: FPRL1 EC50; for FPRL1 (rel. eff.): relative efficacy. The essentials: as §1

[1] abbreviates: class symbol NA, read-out: FPR1 EC50 (NA = Not Active).

Where two headings read alike, the source gives them in different places.

Consider `O=C(Nc1ccc(Br)cc1)[C@H]1[C@@H](C=NO)[C@H]2CC[C@@H]1C21CC1` (racemic) [Compound 92, (+/−)-(1S,2R,3S,4R)—N-(4-Bromophenyl)-3-((hydroxyimino)methyl)spiro[bicyclo[2.2.1]heptane-7,1′-cyclopropane]-2-carboxamide], for which the EC50 on FPR1 (setting [1]) was more than 10000 nM. For the same molecule, on FPRL1, the EC50 was found to be 4380 nM and the “FPRL1 (rel. eff.)” value is given as 0.5.

`N=C[C@@H]1[C@H](C(=O)Nc2ccccc2)[C@@H]2CC[C@H]1C21CC1` (racemic) [Compound 93, (+/−)-(1S,2R,3S,4R)-3-(Iminomethyl)-N-phenylspiro[bicyclo[2.2.1]heptane-7,1′-cyclopropane]-2-carboxamide]: on FPR1 (setting [1]), the EC50 is more than 10000 nM. Moreover, on FPRL1, the EC50 was 5810 nM and the “FPRL1 (rel. eff.)” value was determined as 0.58.

`O=C(Nc1ccccc1)[C@H]1[C@@H](C=NO)[C@H]2CC[C@@H]1C21CC1` (racemic) [Compound 94, (+/−)-(1S,2R,3S,4R)-3-((Hydroxyimino)methyl)-N-phenylspiro[bicyclo[2.2.1]heptane-7,1′-cyclopropane]-2-carboxamide]: on FPR1 (setting [1]), the EC50 is more than 10000 nM. Moreover, at FPRL1, the EC50 came to 2830 nM and the “FPRL1 (rel. eff.)” value was 0.49.

For `O=C(O)C1C(C(=O)Nc2ccc(Br)cc2)C2CCC1C21CC1` (single isomer, unassigned) [Compound 10B], the EC50 at FPR1 (calcium, FLIPR Tetra, tested 0.61 to 10,000 nM, read-out: FPR1 EC50) turned out to be 2170 nM. In addition, the “FPR1 (rel. eff.)” value at FPR1 (relative efficacy, calcium, FLIPR Tetra) came out at 0.76. Besides, on FPRL1, the EC50 was less than 1 nM and the “FPRL1 (rel. eff.)” value is given as 0.98.

Regarding `CS(=O)(=O)c1ccc(NC(=O)[C@H]2[C@@H](C(=O)O)[C@H]3CC[C@@H]2C32CC2)cc1` [Compound 45, (1R,2S,3R,4S)-3-((4-(Methylsulfonyl)phenyl)carbamoyl)spiro[bicyclo[2.2.1]heptane-7,1′-cyclopropane]-2-carboxylic Acid], the EC50 at FPR1 (setting [1]) was more than 10000 nM. Also, at FPRL1, the EC50 came out at 598 nM and the “FPRL1 (rel. eff.)” value was determined as 0.86.

As to `O=C(O)C1=C(C(=O)Nc2ccc(Br)cc2)C2CCC1CC2` [Compound 60, (1s,4s)-3-((4-Bromophenyl)carbamoyl)bicyclo[2.2.2]oct-2-ene-2-carboxylic Acid], the EC50 on FPR1 (setting [1]) is more than 10000 nM. For the same molecule, at FPRL1, the EC50 came to 143 nM and the “FPRL1 (rel. eff.)” value stood at 1.0.

Consider “(+/−)-(1S,2R,3S,4R)—N^2-(4-Bromophenyl)-N^3-methoxyspiro[bicyclo[2.2.1]heptane-7,1′-cyclopropane]-2,3-dicarboxamide [Compound 80]”, for which the EC50 on FPR1 (setting [1]) is more than 10000 nM. For the same molecule, at FPRL1, the EC50 was determined as 55.9 nM and the “FPRL1 (rel. eff.)” value is listed as 0.97.

The values are drawn from patent US8618163B2, “Derivatives of cycloalkyl- and cycloalkenyl-1,2-dicarboxylic acid compounds having formyl peptide receptor like-1 (FPRL-1) agonist or antagonist activity” (Allergan, Inc., priority 2010, dated 2013).
